Laboratory results reported in US9938258B2 (Karyopharm Therapeutics Inc., priority 2012, dated 2018).
Where two headings read alike, the source gives them in different places.

Experiments:
3T3 cells = assay: MTT cell proliferation assay, 3T3; format: cell-based, mouse; conditions: Mus musculus
Summary of the method: (§1)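 Cells plated at 5,000-10,000/well and attached overnight, then treated with eight compound concentrations from 1 nM to 30 μM. MTT added ~4 h, formazan solubilised and read at 490 nm. Percent inhibition versus negative control = (1-(ODo/OD))×100, mostly in duplicate, mean ± SE.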

MS751 cells = assay: MTT cell proliferation assay, MS751; format: cell-based, human; conditions: Homo sapiens
Summary of the method: as §1

Z138 cells = assay: MTT cell proliferation assay, Z138; format: cell-based; conditions: Homo sapiens
Summary of the method: as §1

[1] = NIH3T3, 3T3 cells, approximately 64-72 hours incubation, read-out: MTT Assay IC50, 3T3
[2] = MS751, MS751 cells, approximately 64-72 hours incubation, read-out: MTT Assay IC50, MS751
[3] = Z-138, Z138 cells, approximately 64-72 hours incubation, read-out: MTT Assay IC50, Z138

CC(=O)c1ccc(-c2cc(Cl)c3c(c2)CC(CNC(=O)/C=C/c2cncc(C)c2)O3)s1 (stereo not drawn) [Compound 280, (E)-N-((5-(5-acetylthiophen-2-yl)-7-chloro-2,3-dihydrobenzofuran-2-yl)methyl)-3-(5-methylpyridin-3-yl)acrylamide]
IC50 (3T3 cells; [1]): > 30 µM | IC50 (MS751 cells; [2]): 0.1 to 5 µM | IC50 (Z138 cells; [3]): 0.1 to 5 µM

CC(=O)c1ccc(-c2cc(Cl)c3c(c2)CC(CNC(=O)/C=C/c2csnn2)O3)s1 (stereo not drawn) [Compound 281, (E)-N-((5-(5-acetylthiophen-2-yl)-7-chloro-2,3-dihydrobenzofuran-2-yl)methyl)-3-(1,2,3-thiadizol-5-yl)acrylamide]
IC50 (3T3 cells; [1]): > 30 µM | IC50 (MS751 cells; [2]): > 30 µM | IC50 (Z138 cells; [3]): > 30 µM

CC(=O)c1ccc(-c2cc(Cl)c3c(c2)CC(CNC(=O)/C=C(/C)c2cccnc2)O3)s1 (stereo not drawn) [Compound 282, (Z)-N-((5-(5-Acetylthiophen-2-yl)-7-chloro-2,3-dihydrobenzofuran-2-yl)methyl)-3-(pyridin-3-yl)but-2-enamide]
IC50 (3T3 cells; [1]): > 30 µM | IC50 (MS751 cells; [2]): 0.1 to 5 µM | IC50 (Z138 cells; [3]): 0.1 to 5 µM

CC(=O)c1ccc(-c2cc(Cl)c3c(c2)CC(CNC(=O)/C=C(\C)c2cccnc2)O3)s1 (stereo not drawn) [Compound 283, (E)-N-((5-(5-acetylthiophen-2-yl)-7-chloro-2,3-dihydrobenzofuran-2-yl)methyl)-3-(pyridin-3-yl)but-2-enamide]
IC50 (3T3 cells; [1]): > 30 µM | IC50 (MS751 cells; [2]): 5 to 30 µM | IC50 (Z138 cells; [3]): 5 to 30 µM

CC(=O)c1ccc(-c2cc(Cl)c3c(c2)CC(CNC(=O)/C=C/c2c(C)nn(-c4ccc(F)cc4)c2Cl)O3)s1 (stereo not drawn) [Compound 284, (E)-N-((5-(5-acetylthiophen-2-yl)-7-chloro-2,3-dihydrobenzofuran-2-yl)methyl)-3-(5-chloro-1-(4-fluorophenyl)-3-methyl-1H-pyrazol-4-yl)acrylamide]
IC50 (3T3 cells; [1]): > 30 µM | IC50 (MS751 cells; [2]): > 30 µM | IC50 (Z138 cells; [3]): > 30 µM

CC(=O)c1ccc(-c2cc(Cl)c3c(c2)CC(CNC(=O)/C=C/c2cc(C)n(-c4nccs4)c2C)O3)s1 (stereo not drawn) [Compound 285, (E)-N-((5-(5-Acetylthiophen-2-yl)-7-chloro-2,3-dihydrobenzofuran-2-yl)methyl)-3-(2,5-dimethyl-1-(thiazol-2-yl)-1H-pyrrol-3-yl)acrylamide]
IC50 (3T3 cells; [1]): > 30 µM | IC50 (MS751 cells; [2]): > 30 µM | IC50 (Z138 cells; [3]): > 30 µM

CC(=O)c1ccc(-c2cc(Cl)c3c(c2)CC(CNC(=O)/C(C#N)=C/c2ccoc2)O3)s1 (stereo not drawn) [Compound 286, (E)-N-((5-(5-acetylthiophen-2-yl)-7-chloro-2,3-dihydrobenzofuran-2-yl)methyl)-2-cyano-3-(furan-3-yl) acrylamide]
IC50 (3T3 cells; NIH3T3, read-out: MTT Assay IC50, 3T3): > 30 µM | IC50 (MS751 cells; MS751, read-out: MTT Assay IC50, MS751): 5 to 30 µM | IC50 (Z138 cells; Z-138, read-out: MTT Assay IC50, Z138): 5 to 30 µM

CC(=O)c1ccc(-c2cc(Cl)c3c(c2)CC(CNC(=O)/C=C/c2c(C)nn4c(C(F)(F)F)ccnc24)O3)s1 (stereo not drawn) [Compound 287, (E)-N-((5-(5-acetylthiophen-2-yl)-7-chloro-2,3-dihydrobenzofuran-2-yl)methyl)-3-(2-methyl-7-(trifluoromethyl)pyrazolo[1,5-a]pyrimidin-3-yl) acryl amide]
IC50 (3T3 cells; [1]): > 30 µM | IC50 (MS751 cells; [2]): > 30 µM | IC50 (Z138 cells; [3]): > 30 µM

CC(=O)c1ccc(-c2cc(Cl)c3c(c2)CC(CNC(=O)/C=C/c2cc(C)n(-c4cc(C)on4)c2C)O3)s1 (stereo not drawn) [Compound 288, (E)-N-((5-(5-acetylthiophen-2-yl)-7-chloro-2,3-dihydrobenzofuran-2-yl)methyl)-3-(2,5-dimethyl-1-(5-methylisoxazol-3-yl)-1H-pyrrol-3-yl)acrylamide]
IC50 (3T3 cells; [1]): > 30 µM | IC50 (MS751 cells; [2]): > 30 µM | IC50 (Z138 cells; [3]): > 30 µM

CC(=O)c1ccc(-c2cc(Cl)c3c(c2)CC(CNC(=O)/C=C/c2cc4cnn(C(C)C)c4[nH]c2=O)O3)s1 (stereo not drawn) [Compound 289, (E)-N-((5-(5-acetylthiophen-2-yl)-7-chloro-2,3-dihydrobenzofuran-2-yl)methyl)-3-(1-isopropyl-6-oxo-6,7-dihydro-1H-pyrazolo[3,4-b]pyridin-5-yl)acrylamide]
IC50 (3T3 cells; [1]): > 30 µM | IC50 (MS751 cells; [2]): 5 to 30 µM | IC50 (Z138 cells; [3]): 0.1 to 5 µM

CC(=O)c1ccc(-c2cc(Cl)c3c(c2)CC(CNC(=O)/C=C/c2nc4ccccc4o2)O3)s1 (stereo not drawn) [Compound 290, (E)-N-((5-(5-acetylthiophen-2-yl)-7-chloro-2,3-dihydrobenzofuran-2-yl)methyl)-3-(benzo[d]oxazol-2-yl)acrylamide]
IC50 (3T3 cells; [1]): > 30 µM | IC50 (MS751 cells; [2]): > 30 µM | IC50 (Z138 cells; [3]): > 30 µM

CC(=O)c1ccc(-c2cc(Cl)c3c(c2)CC(CNC(=O)/C=C/c2sc4ccccc4c2Cl)O3)s1 (stereo not drawn) [Compound 291, (E)-N-((5-(5-acetylthiophen-2-yl)-7-chloro-2,3-dihydrobenzofuran-2-yl)methyl)-3-(3-chlorobenzo[b]thiophen-2-yl)acrylamide]
IC50 (3T3 cells; [1]): > 30 µM | IC50 (MS751 cells; [2]): > 30 µM | IC50 (Z138 cells; [3]): > 30 µM

CC(=O)c1ccc(-c2ccc3c(c2)CC(CNC(=O)/C=C/c2cccnc2)O3)s1 (stereo not drawn) [Compound 292, (E)-N-((5-(5-acetylthiophen-2-yl)-2,3-dihydrobenzofuran-2-yl)methyl)-3-(pyridin-3-yl)acrylamide]
IC50 (3T3 cells; [1]): 0.1 to 5 µM | IC50 (MS751 cells; [2]): 0.1 to 5 µM | IC50 (Z138 cells; [3]): 0.1 to 5 µM

CC(=O)c1ccc(-c2cc(Cl)c3c(c2)CC(CNC(=O)/C=C/c2ccno2)O3)s1 (stereo not drawn) [Compound 293, (E)-N-((5-(5-acetylthiophen-2-yl)-7-chloro-2,3-dihydrobenzofuran-2-yl)methyl)-3-(isoxazol-5-yl)acrylamide]
IC50 (3T3 cells; [1]): > 30 µM | IC50 (MS751 cells; [2]): > 30 µM | IC50 (Z138 cells; [3]): > 30 µM

CNc1ccc(/C=C/C(=O)NCC2Cc3cc(-c4ccc(C(C)=O)s4)cc(Cl)c3O2)cn1 (stereo not drawn) [Compound 294, (E)-N-((5-(5-acetylthiophen-2-yl)-7-chloro-2,3-dihydrobenzofuran-2-yl)methyl)-3-(6-(methylamino)pyridin-3-yl)acrylamide]
IC50 (3T3 cells; [1]): 5 to 30 µM | IC50 (MS751 cells; [2]): 0.1 to 5 µM | IC50 (Z138 cells; [3]): 0.1 to 5 µM

CC(=O)c1ccc(-c2cc(Cl)c3c(c2)CC(CNC(=O)/C=C/c2ccc(N(C)C)nc2)O3)s1 (stereo not drawn) [Compound 295, (E)-N-((5-(5-acetylthiophen-2-yl)-7-chloro-2,3-dihydrobenzofuran-2-yl)methyl)-3-(6-(dimethylamino)pyridin-3-yl)acrylamide]
IC50 (3T3 cells; [1]): > 30 µM | IC50 (MS751 cells; [2]): > 30 µM | IC50 (Z138 cells; [3]): > 30 µM

COc1ccc(/C=C/C(=O)NCC2Cc3cc(-c4ccc(C(C)=O)s4)cc(Cl)c3O2)cn1 (stereo not drawn) [Compound 296, (E)-N-((5-(5-acetylthiophen-2-yl)-7-chloro-2,3-dihydrobenzofuran-2-yl)methyl)-3-(6-methoxypyridin-3-yl)acrylamide]
IC50 (3T3 cells; [1]): > 30 µM | IC50 (MS751 cells; [2]): 5 to 30 µM | IC50 (Z138 cells; [3]): 5 to 30 µM

CC(=O)c1ccc(-c2cc(Cl)c3c(c2)CC(CNC(=O)/C=C/c2ccc(-c4ccc(F)cc4)s2)O3)s1 (stereo not drawn) [Compound 297, (E)-N-((5-(5-acetylthiophen-2-yl)-7-chloro-2,3-dihydrobenzofuran-2-yl)methyl)-3-(5-(4-fluorophenyl)thiophen-2-yl)acrylamide]
IC50 (3T3 cells; [1]): > 30 µM | IC50 (MS751 cells; [2]): > 30 µM | IC50 (Z138 cells; [3]): > 30 µM

CC(=O)c1ccc(-c2cc(Cl)c3c(c2)CC(CNC(=O)/C=C/c2cncc(F)c2)O3)s1 (stereo not drawn) [Compound 298, (E)-N-((5-(5-acetylthiophen-2-yl)-7-chloro-2,3-dihydrobenzofuran-2-yl)methyl)-3-(5-fluoropyridin-3-yl)acrylamide]
IC50 (3T3 cells; [1]): > 30 µM | IC50 (MS751 cells; [2]): > 30 µM | IC50 (Z138 cells; [3]): 0.1 to 5 µM

CC(=O)c1ccc(-c2cc(Cl)c3c(c2)CC(CNC(=O)/C=C\c2cccnc2)O3)s1 (stereo not drawn) [Compound 299, (Z)-N-((5-(5-acetylthiophen-2-yl)-7-chloro-2,3-dihydrobenzofuran-2-yl)methyl)-3-(pyridin-3-yl)acrylamide]
IC50 (3T3 cells; [1]): > 30 µM | IC50 (MS751 cells; [2]): 0.1 to 5 µM | IC50 (Z138 cells; [3]): 0.1 to 5 µM

Cc1noc(C)c1-c1cc(Cl)c2c(c1)CC(CNC(=O)/C=C/c1ccc(N)nc1)O2 (stereo not drawn) [Compound 300, (E)-3-(6-aminopyridin-3-yl)-N-((7-chloro-5-(3,5-dimethylisoxazol-4-yl)-2,3-dihydrobenzofuran-2-yl)methyl)acrylamide]
IC50 (3T3 cells; [1]): > 30 µM | IC50 (MS751 cells; [2]): 0.1 to 5 µM | IC50 (Z138 cells; [3]): < 0.1 µM

CC(=O)c1ccc(-c2cc(Cl)c3c(c2)CC(CNC(=O)/C=C/c2cc(C)n(-c4ccccc4)c2C)O3)s1 (stereo not drawn) [Compound 301, (E)-N-((5-(5-Acetylthiophen-2-yl)-7-chloro-2,3-dihydrobenzofuran-2-yl)methyl)-3-(2,5-dimethyl-1-phenyl-1H-pyrrol-3-yl)acrylamide]
IC50 (3T3 cells; [1]): > 30 µM | IC50 (MS751 cells; [2]): > 30 µM | IC50 (Z138 cells; [3]): > 30 µM

CC(=O)c1ccc(Oc2cc(Cl)c3c(c2)CC(CNC(=O)/C=C/c2cccnc2)O3)s1 (stereo not drawn) [Compound 303, (E)-N-((5-(5-acetylthiophen-2-yloxy)-7-chloro-2,3-dihydrobenzofuran-2-yl)methyl)-3-(pyridin-3-yl)acrylamide]
IC50 (3T3 cells; [1]): 0.1 to 5 µM | IC50 (MS751 cells; [2]): 0.1 to 5 µM | IC50 (Z138 cells; [3]): 0.1 to 5 µM

CC(C)(O)c1ccc(-c2cc(Cl)c3c(c2)CC(CNC(=O)/C=C/c2cccnc2)O3)s1 (stereo not drawn) [Compound 304, (E)-N-((7-chloro-5-(5-(2-hydroxypropan-2-yl)thiophen-2-yl)-2,3-dihydrobenzofuran-2-yl)methyl)-3-(pyridine-3-yl)acrylamide]
IC50 (3T3 cells; [1]): 0.1 to 5 µM | IC50 (MS751 cells; [2]): < 0.1 µM | IC50 (Z138 cells; [3]): < 0.1 µM

CC(=O)c1ccc(-c2cccc3c2OC(CNC(=O)/C=C/c2ccc(N)nc2)C3)s1 (stereo not drawn) [Compound 305, (E)-N-((7-(5-Acetylthiophen-2-yl)-2,3-dihydrobenzofuran-2-yl)methyl)-3-(6-aminopyridin-3-yl)acrylamide]
IC50 (3T3 cells; [1]): 5 to 30 µM | IC50 (MS751 cells; [2]): 0.1 to 5 µM | IC50 (Z138 cells; [3]): 0.1 to 5 µM
